Reference: patent publication US4963553A, “4-[(substituted) alkylcarbonyl]-4,5-dihydro- and -4,5,6,7-tetrahydro-7-[(substituted)phenyl]pyrazolo[1,5-a]pyrimidines” (American Cyanamid Co., priority 1988, dated 1990)
Structures can show the parent of a compound that is named as a salt.

System: rats
Test: Non-conditioned passive avoidance conflict procedure in rats (anxiolytic)
Format: in vivo, rat (Wistar strain, male)
Conditions: 25 mg/kg, oral, 60 minutes
Method: A test used to assess antianxiety effects is the non-conditioned passive avoidance procedure described by J. R. Vogel, B. Beer and D. E. Clody, "A Simple and Reliable Conflict Procedure for Testing Antianxiety Agents", Psychopharmacologia, 21, 1-7 (1971). A conflict situation is induced in rats by a modification of this method.
Groups of 8 naive, Wistar strain male rats (Royalhart Farms, New Hampton, N.J.), weighing 200-240 g each, were deprived of water for 48 hours. The test compounds were administered in single or graded, oral doses, suspended in 2% starch with 5% polyethylene glycol in distilled water and one drop of polysorbate 80. Control animals received the vehicle alone. At 60 minutes each rat was placed in an individual clear plastic chamber. Tap water was available ad libitum from a nipple located in a black box off the main chamber. A 0.7 milliampere AC shocking current was established between the stainless steel grid floor and the tap. After 20 licks of non-shocked drinking, a 2 second shocking current was administered to the rat. This ratio of 20 licks of non-shocked drinking followed by a 2 second shock was continued for a total of 3 minutes. The number of shocks taken by each rat during the 3 minute interval was recorded and compared to a control group. […]

SMILES: CN1CCN(CC(=O)N2CC=C(c3cccc(C(F)(F)F)c3)n3ncc(C#N)c32)CC1 [Example 77, 4,5-Dihydro-4-[(4-methyl-1-piperazinyl)acetyl]-7-[3-(trifluoromethyl)phenyl]pyrazolo[1,5-a]-pyrimidine-3-carbonitrile. dihydrochloride]
- Result (No. of shocks per 3 min.): 17.4 shocks per 3 min.
